Test results published in ChEMBL document CHEMBL1142943, “Homology modeling of human Fyn kinase structure: discovery of rosmarinic acid as a new Fyn kinase inhibitor and in silico study of its possible binding modes” (J Med Chem, 2007).

Assays:
[1] = target: T1, Tyrosine-protein kinase Fyn (Homo sapiens, UniProt P06241); test: Inhibition of human Fyn expressed in Sf9 cells at 10 umol/L by ELISA
[2] = target: T1, Tyrosine-protein kinase Fyn; test: Inhibition of human Fyn expressed in Sf9 cells after 1 min by ELISA in presence of 1 umol/L ATP
[3] = target: T1, Tyrosine-protein kinase Fyn; test: Inhibition of human Fyn expressed in Sf9 cells after 20 mins by ELISA in presence of 1 umol/L ATP
[4] = target: T1, Tyrosine-protein kinase Fyn; test: Inhibition of human Fyn expressed in Sf9 cells after 20 mins by ELISA in presence of 10 umol/L ATP
[5] = target: T1, Tyrosine-protein kinase Fyn; test: Inhibition of human Fyn expressed in Sf9 cells after 1 min by ELISA in presence of 10 umol/L ATP
[6] = target: T1, Tyrosine-protein kinase Fyn; test: Inhibition of human Fyn expressed in Sf9 cells after 1 min by ELISA in presence of 100 umol/L ATP
[7] = target: T1, Tyrosine-protein kinase Fyn; test: Inhibition of human Fyn expressed in Sf9 cells after 20 mins by ELISA in presence of 100 umol/L ATP
[8] = target: T1, Tyrosine-protein kinase Fyn; test: Inhibition of human Fyn expressed in Sf9 cells at 30 umol/L by ELISA

T1 sequence (P06241 whole entry): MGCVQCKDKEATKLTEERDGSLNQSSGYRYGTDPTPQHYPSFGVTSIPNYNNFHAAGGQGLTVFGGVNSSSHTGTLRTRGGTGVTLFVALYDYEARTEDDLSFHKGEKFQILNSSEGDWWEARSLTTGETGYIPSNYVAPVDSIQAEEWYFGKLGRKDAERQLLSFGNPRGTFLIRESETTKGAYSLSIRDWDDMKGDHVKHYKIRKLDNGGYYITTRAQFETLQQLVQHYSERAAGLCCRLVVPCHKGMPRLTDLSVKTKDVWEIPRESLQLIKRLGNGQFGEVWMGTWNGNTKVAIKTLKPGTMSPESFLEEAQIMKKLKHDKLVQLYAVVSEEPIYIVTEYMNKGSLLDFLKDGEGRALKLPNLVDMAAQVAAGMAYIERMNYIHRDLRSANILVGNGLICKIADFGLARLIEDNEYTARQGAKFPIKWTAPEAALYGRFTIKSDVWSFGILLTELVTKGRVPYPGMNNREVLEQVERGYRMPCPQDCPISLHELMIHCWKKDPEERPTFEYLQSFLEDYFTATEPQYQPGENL

Ki [1]: 7.5 µM
IC50 [2]: 36 µM
IC50 [3]: 1300 nM
IC50 [4]: 3.6 µM
IC50 [5]: 74 µM
IC50 [6]: 63 µM
IC50 [7]: 17 µM
Ki [8]: 10.2 µM
SMILES: O=C(/C=C/c1ccc(O)c(O)c1)O[C@H](Cc1ccc(O)c(O)c1)C(=O)O [ROSMARINIC ACID]
